Tests used:
[1] = tested on: icSARS-CoV-2nMG (CoV2-GFP); format: cell-based, SARS-CoV-2
[2] = tested on: poly I:C stimulated Calu 3 cells; experiment: Gene expression (qPCR) in poly I:C stimulated Calu3 cells; format: cell-based; conditions: 10 ug/ml poly IC 24 h, 20 uM LG 48 h
Procedure: (§1) FIG. 2A-B are a series of graphs depicting broad spectrum anti-viral and anti-inflammatory activity of LG. Histograms showing mRNA expression assessed by qPCR. A) Effect of LG on poly I:C (P I:C) stimulated Calu 3 cells with or without LG treatment, B) Anti-inflammatory effect of LG treatment in NL63 infected Calu 3 cells. Cells were collected 48 hrs of post infection (PI) with NL63 virus (0.1 MOI) (C, Control) and treated with LG (20 uM) (T, Treatment), n=3, Data expressed as mean±SEM, * Compared to NL63, *p<0.05, **p<0.005, ***p<0.0005.
(§2) To examine whether LG has broad spectrum antiviral activity, Calu3 cells are stimulated with 10 ug/ml poly IC for 24 h, treated with 20 uM LG for 48 h, and then RNA was isolated for gene expression analyses. […] Further the inventors examined the effect of LG on the Calu3 lung cells infected with human coronavirus NL63.

[3] = tested on: mouse coronavirus MHV-A59-GFP; experiment: microbe, parasite or virus in culture; conditions: read-out: inhibition of infection
RBD-ACE2 interaction = target: T1, RBD-ACE2 interaction (Severe acute respiratory syndrome coronavirus 2, UniProt P0DTC2); format: binding; conditions: compared to the negative control
T1 construct: purchased Genscript

[4] = tested on: mouse coronavirus MHV-A59-GFP
Delta strain = experiment: Plaque assay, Delta strain; format: cell-based, SARS-CoV-2
WA strain = experiment: Plaque assay, WA strain; format: cell-based, SARS-CoV-2
human coronavirus NL63 = experiment: Gene expression (qPCR) in NL63 infected Calu3 cells; format: cell-based; conditions: NL63 0.1 MOI, LG 20 uM, 48 hrs PI
Procedure: as §1, §2

[5] = tested on: mouse coronavirus (MHV), K18 hACE2 transgenic mouse, and mouse adapted coronavirus (MA10) infection models
icSARS-CoV-2nMG = format: cell-based, SARS-CoV-2

Row | Structure (SMILES) | CoV2 infection [1] | infected GFP-positive cells ([1]; LG 20 uM, WA strain, Caco2) | expression of IL-6, IL1β, IFNγ, TNFα, NFkB, NLRP3 [2] | expression of IL-10 and PPARγ [2] | inhibition at 20 µM [3] [%] | interference of RBD-ACE2 interaction (RBD-ACE2 interaction) | cell killing (bright field images) ([4]; 20 uM LG, DBT cells) | inhibition of coronavirus infection (dose dependence) ([4]; DBT cells, GFP) | reduction in infection versus Remdesvir ([4]; LG 20 uM vs Remdesvir 10 nM) | N transcript ([4]; LG 20 uM, compared to vehicle control) | reduction in plaque titers (Delta strain) [log] | reduction in plaque titers (WA strain) [log] | expression of anti-inflammatory genes at transcript level (human coronavirus NL63) | efficacy in in vivo studies [5] [%] | viral infection as seen by N gene expression (icSARS-CoV-2nMG)
1 | CC(O)c1ccc(CCOc2ccc(CC3SC(=O)NC3=O)cc2)nc1 (stereo not drawn) [LG, leriglitazone] | dose-dependent decrease of CoV2 infection | significant reduction in infected GFP-positive cells | inhibits expression | increases expression | > 70 | significantly inhibited the RBD-ACE2 interaction in a dose-dependent manner | without killing the cells | inhibited coronavirus infection in a dose-dependent fashion | significantly higher reduction in infection | significant reduction in N transcript | > 2 | > 2 | altered expression of anti-inflammatory genes at the transcript level similar to that found in poly-IC experiment | > 70 | 
2 | CCCCC/C=C\C/C=C\CCCCCCCC(=O)O [LLA, linoleic acid] |  |  |  |  |  |  |  |  |  |  |  |  |  |  | significantly decreased viral infection

— US20240065983A1, “COMPOSITION AND METHOD FOR TREATING COVID-19” (University of South Florida, priority 2021, published 2024)
